US20100104567A1, “PHARMACEUTICAL COMPOSITION” (KYOWA HAKKO KIRIN CO., LTD., priority 2007, published 2010)
Like-named read-outs stand apart in the source and are kept apart here.

How the values were obtained:
[1] = system: human colon cancer Colo205 cells; assay: Antitumor effect of Flt-3 inhibitor and 5-fluorouracil (5-FU) in mouse models transplanted with Colo205 cells; assay type: in vivo; details: day 7; BALB/cAJcl-nu mice, s.c. Colo205; Compound 9 20 mg/kg oral twice a day x 5 days; 5-FU 10 mg/kg i.v. once a day x 5 days
[2] = system: human acute myeloid leukemia HL-60 cells; assay: Antitumor effect of Flt-3 inhibitor and daunorubicin in mouse models transplanted with HL-60 cells; assay type: in vivo; details: day 17; scid mice, s.c. HL-60; Compound 9 20 mg/kg oral twice a day x 14 days; daunorubicin 2.5 mg/kg i.v. once a day x 3 days
Experimental: B. Compound 9 alone group: 20 mg/kg (twice a day×14 days)
C. Daunorubicin alone group: 2.5 mg/kg (once a day×3 days)
D. Compound 9+daunorubicin: 20 mg/kg (twice a day×14 days) for Compound 9, and 2.5 mg/kg (once a day×3 days) for daunorubicin

[3] = system: human colon cancer Colo205 cells; assay: Antitumor effect of Flt-3 inhibitor and irinotecan in mouse models transplanted with Colo205 cells; assay type: in vivo; details: day 11; BALB/cAJcl-nu mice, s.c. Colo205; Compound 9 20 mg/kg oral twice a day x 5 days; irinotecan 67 mg/kg i.v. days 0 and 3
Experimental: [formula] […] Irinotecan was suspended in physiological saline at a concentration of 6.7 mg/mL. […] A. […] B. […] C. Irinotecan alone group: 67 mg/kg (once a day/days zero and 3 after the start of administration) D.

[4] = system: human acute myeloid leukemia MOLM-13 cells; assay: Antitumor effect of Flt-3 inhibitor and cytarabine in mouse models transplanted with MOLM-13 cells; details: day 14; scid mice, s.c. MOLM-13; Compound 9 5 mg/kg oral twice a day x 14 days; cytarabine 75 mg/kg i.v. once a day x 5 days
[5] = system: human acute myeloid leukemia MOLM-13 cells; assay: Antitumor effect of Flt-3 inhibitor and Hsp90 inhibitor in mouse models transplanted with MOLM-13 cells; assay type: in vivo; details: day 7; scid mice, s.c. MOLM-13; Compound P 12.5 mg/kg i.v. twice a day x 5 days; Compound 9 10 mg/kg oral twice a day x 5 days
[6] = system: human pancreatic cancer MIA-Paca-2 cells; assay: Antitumor effect of Flt-3 inhibitor and gemcitabine in mouse models transplanted with MIA-Paca-2 cells; assay type: in vivo; details: day 24; scid mice, s.c. MIA-PaCa-2; Compound 9 25 mg/kg oral twice a day x 5 days; gemcitabine 60 mg/kg i.v. days 0, 3, 7, 10
Experimental: [formula] […] A. […] B. […] C. Gemcitabine alone group: 60 mg/kg (once a day/days zero, 3, 7, and 10 after the start of administration) D.

[7] = system: human pancreatic cancer MIA-Paca-2 cells; assay: Antitumor effect of Flt-3 inhibitor and cetuximab in mouse models transplanted with MIA-Paca-2 cells; assay type: in vivo; details: day 24; scid mice, s.c. MIA-PaCa-2; Compound 9 50 mg/kg oral twice a day x 5 days; cetuximab 2.5 mg/head i.v. days 0, 3, 6, 9, 12
[8] = system: human renal cancer Caki-1 cells; assay: Antitumor effect of Flt-3 inhibitor and sunitinib in mouse models transplanted with Caki-1 cells; details: day 18; BALB/cAJcl-nu mice, s.c. Caki-1 tumor pieces; Compound 9 50 mg/kg oral twice a day days 0-4; sunitinib 40 mg/kg oral twice a day x 5 days (alone days 0-4, combined days 7-11)
[9] = system: human renal cancer Caki-1 cells; details: day 10; BALB/cAJcl-nu mice, s.c. Caki-1 tumor pieces; Compound 9 25 mg/kg oral twice a day x 5 days; erlotinib 50 mg/kg oral once a day x 5 days

For `O=c1[nH]cc(F)c(=O)[nH]1` [Compound 5-FU, 5-fluorouracil, reference compound], which “T/C (V/V0 of group divided by V/V0 of negative control group)” value [1] is on record?
Its value is 0.81.

Which “T/C (V/V0 of group divided by V/V0 of negative control group)” value [2] does the source give for `O=C(c1ccc(/C=C/c2n[nH]c3ccccc23)cc1)N1CCNCC1` [Compound 9] here?
The value was 0.42.

What about the “T/C (V/V0 of group divided by V/V0 of negative control group)” value [3] of the same molecule?
Its value is 0.75.

What about the “T/C (V/V0 of group divided by V/V0 of negative control group)” value [1] of the same molecule?
The value was 0.68.

And the “T/C (V/V0 of group divided by V/V0 of negative control group)” value [4]?
Its value is 0.29.

What about the “T/C (V/V0 of group divided by V/V0 of negative control group)” value [5] of the same molecule?
Its value is 0.29.

What about the “T/C (V/V0 of group divided by V/V0 of negative control group)” value [6] of the same molecule?
The value was 0.84.

And the “T/C (V/V0 of group divided by V/V0 of negative control group)” value [7]?
The value was 0.59.

What about the “T/C (V/V0 of group divided by V/V0 of negative control group)” value [8] of the same molecule?
Its value is 0.50.

And the “T/C (V/V0 of group divided by V/V0 of negative control group)” value [9]?
Its value is 0.71.

`CCc1c(O)cc(O)c(C(=O)c2ccc(OCCN3CCOCC3)c(OC)c2)c1CC(=O)N(CCOC)CCOC` [Compound P, 2-{2-ethyl-3,5-dihydroxy-6-[3-methoxy-4-(2-morpholinoethoxy)benzoyl]pheny1]-N,N-bis(2-methoxyethyl)acetamide, reference compound] was tested. Which “T/C (V/V0 of group divided by V/V0 of negative control group)” value [5] did it give?
The value was 0.53.

With `Nc1ccn([C@@H]2O[C@H](CO)[C@@H](O)[C@@H]2O)c(=O)n1` [Cytarabine, reference compound] as the molecule, how does the “T/C (V/V0 of group divided by V/V0 of negative control group)” value [4] read?
The value was 0.62.

Which “T/C (V/V0 of group divided by V/V0 of negative control group)” value [2] does the source give for `COc1cccc2c1C(=O)c1c(O)c3c(c(O)c1C2=O)C[C@@](O)(C(C)=O)C[C@@H]3O[C@H]1C[C@H](N)[C@H](O)[C@H](C)O1` [Daunorubicin, reference compound] here?
Its value is 0.61.

Which “T/C (V/V0 of group divided by V/V0 of negative control group)” value [9] does the source give for `C#Cc1cccc(Nc2ncnc3cc(OCCOC)c(OCCOC)cc23)c1` [Erlotinib, reference compound] here?
The value was 0.89.

For `Nc1ccn([C@@H]2O[C@H](CO)[C@@H](O)C2(F)F)c(=O)n1` [Gemcitabine, reference compound], which “T/C (V/V0 of group divided by V/V0 of negative control group)” value [6] is on record?
The value was 0.57.

Which “T/C (V/V0 of group divided by V/V0 of negative control group)” value [3] does the source give for `CCc1c2c(nc3ccc(OC(=O)N4CCC(N5CCCCC5)CC4)cc13)-c1cc3c(c(=O)n1C2)COC(=O)[C@]3(O)CC` [Irinotecan, reference compound] here?
Its value is 0.65.

`CCN(CC)CCNC(=O)c1c(C)[nH]c(/C=C2\C(=O)Nc3ccc(F)cc32)c1C` [Sunitinib, reference compound] was tested. Which “T/C (V/V0 of group divided by V/V0 of negative control group)” value [8] did it give?
Its value is 0.62.
